For assay [1], the target named is Programmed cell death protein 1/Programmed cell death 1 ligand 1 (Homo sapiens, UniProt Q9NZQ7). Description: Inhibition of europium-labeled PD-1/biotinylated PD-L1 interaction (unknown origin) preincubated for 15 mins with PD-L1 followed by PD-1 addition and measured after 90 mins by TR-FRET assay. The assay is classed as protein-complex assay.
Assay [2] is described as follows: Antitumor activity against humanized mouse LLC-hPD-L1 cells implanted in hPD-1 knockin C57BL/6 mouse assessed as tumor growth inhibition at 10 mg/kg, ip administered for 12 days starting from day 7 post tumor implantation and measured every 2 days relative to control. The assay is classed as functional. As to conditions: LLC-hPD-L1, 288 h, time 12 day, read-out: TGI.

Molecules are shown by their SMILES. Some results are limits rather than exact numbers.

Chain of Programmed cell death protein 1/Programmed cell death 1 ligand 1 (Q15116 whole entry): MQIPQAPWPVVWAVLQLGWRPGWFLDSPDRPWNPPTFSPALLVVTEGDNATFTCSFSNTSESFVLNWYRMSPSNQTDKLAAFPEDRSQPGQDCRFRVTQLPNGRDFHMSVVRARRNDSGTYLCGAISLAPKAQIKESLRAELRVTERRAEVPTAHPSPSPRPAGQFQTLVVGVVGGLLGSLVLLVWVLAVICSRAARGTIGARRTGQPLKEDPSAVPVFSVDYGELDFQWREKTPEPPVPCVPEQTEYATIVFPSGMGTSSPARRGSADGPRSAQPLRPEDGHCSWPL
Chain of Programmed cell death protein 1/Programmed cell death 1 ligand 1 (Q9NZQ7 whole entry): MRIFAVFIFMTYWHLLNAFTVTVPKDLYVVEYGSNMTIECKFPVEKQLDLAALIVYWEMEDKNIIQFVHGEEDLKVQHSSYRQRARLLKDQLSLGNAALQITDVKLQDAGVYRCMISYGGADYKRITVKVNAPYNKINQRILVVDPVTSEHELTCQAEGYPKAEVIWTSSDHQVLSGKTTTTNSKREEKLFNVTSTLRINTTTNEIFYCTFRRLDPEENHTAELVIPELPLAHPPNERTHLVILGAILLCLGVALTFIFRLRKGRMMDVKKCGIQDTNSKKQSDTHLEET

As to `Cc1c(-c2ccccc2)cccc1N1C(=O)c2ccc(OCc3ccc(C(C)C)cc3)cc2C1=O`, the IC50 in assay [1] was over 10 µM.
Compound `Cc1c(-c2ccccc2)cccc1N1C(=O)c2ccc(C(=O)NCCO)cc2C1=O` gave an IC50 in assay [1] of 1.89 µM.
The compound `CC(=O)NCCNCc1ccc2c(c1)C(=O)N(c1cccc(-c3ccccc3)c1C)C2=O` registered an IC50 in assay [1] of 0.59 µM.
Same read-out and setting: in the case of `Cc1c(-c2ccccc2)cccc1N1C(=O)c2ccc(CN3CCC[C@H]3CO)cc2C1=O` it was 2.21 µM; in that of `Cc1c(-c2ccccc2)cccc1N1C(=O)c2ccc(CNCCO)cc2C1=O`, 0.342 µM; in that of `COc1cc2c(cc1CNCCNC(C)=O)C(=O)N(c1cccc(-c3ccccc3)c1C)C2=O`, 0.0462 µM.
Still for that read-out and setting: in the case of `Cc1c(-c2ccccc2)cccc1N1C(=O)c2cc(Br)c(CN3CCCC[C@H]3C(=O)O)cc2C1=O` it was over 10 µM; in that of `Cc1c(-c2ccc3c(c2)OCCO3)cccc1N1C(=O)c2ccc(C(=O)NCCO)cc2C1=O`, 0.745 µM; in that of `Cc1c(-c2ccccc2)cccc1N1C(=O)c2ccc(C(=O)N3CCN(C(C)C)CC3)cc2C1=O`, 5.13 µM.
Same read-out and setting: in the case of `COc1cc2c(cc1CNCCO)C(=O)N(c1cccc(-c3ccccc3)c1C)C2=O` it was 0.0156 µM; in that of `CCOC(=O)[C@H](CO)NCc1ccc2c(c1)C(=O)N(c1cccc(-c3ccccc3)c1C)C2=O`, 2.38 µM; in that of `COc1cc2c(cc1CN1CCC[C@H]1C(=O)O)C(=O)N(c1cccc(-c3ccccc3)c1C)C2=O`, 0.139 µM.
`COc1cc2c(cc1CN[C@@H](CO)C(=O)OC(C)(C)C)C(=O)N(c1cccc(-c3ccccc3)c1C)C2=O` displayed an IC50 in assay [1] of 0.296 µM.
On to `COc1nc(OCc2cccc(-c3ccccc3)c2C)ccc1CNCCNC(C)=O`, for which the inhibition in vivo at 10 mg/kg in assay [2] was 39.8%.
The compound `COc1cc2c(cc1CNCC(=O)O)C(=O)N(c1cccc(-c3ccccc3)c1C)C2=O` returned an IC50 in assay [1] of 0.0359 µM.
Regarding `Cc1c(-c2ccccc2)cccc1N1C(=O)c2ccc(C(=O)N3CCOCC3)cc2C1=O`, the IC50 in assay [1] was determined as 1.95 µM.
In the case of `Cc1c(-c2ccccc2)cccc1N1C(=O)c2ccc(CNC3CCOCC3)cc2C1=O`, in assay [1], the IC50 was 0.683 µM.
In assay [1], `Cc1c(CN2C(=O)c3ccc(CNCCO)cc3C2=O)cccc1-c1ccccc1` came in with an IC50 of 3.84 µM. Compared with the last compound, the IC50 is about 5.6-fold higher.
For the compound `Cc1c(-c2ccccc2)cccc1N1C(=O)c2ccc(CN3CCOCC3)cc2C1=O`, it took 2.52 µM to reach half-maximal inhibition in assay [1] (IC50).
Same read-out and setting: with `CC(=O)COc1ccc2c(c1)C(=O)N(c1cccc(-c3ccccc3)c1C#N)C2=O` the figure was 0.249 µM; with `N#Cc1ccc(COc2ccc3c(c2)C(=O)N(c2cccc(-c4ccccc4)c2C#N)C3=O)cc1`, over 10 µM; with `Cc1c(-c2ccccc2)cccc1N1C(=O)c2ccc(CN(C)CCO)cc2C1=O`, 0.917 µM.
Still for that read-out and setting: with `Cc1c(-c2ccccc2)cccc1N1C(=O)c2ccc(CN3CCC[C@H]3C(=O)O)cc2C1=O` the figure was 1.42 µM; with `Cc1c(-c2ccccc2)cccc1N1C(=O)c2ccc(CNCCNS(C)(=O)=O)cc2C1=O`, 0.968 µM; with `Cc1c(-c2ccccc2)cccc1N1C(=O)c2ccc(CNCCNC(=O)OC(C)(C)C)cc2C1=O`, 2.4 µM.
In turn, `N#Cc1c(-c2ccccc2)cccc1N1C(=O)c2ccc(C(=O)N3CCOCC3)cc2C1=O` displayed an IC50 in assay [1] of 6.69 µM.
Regarding `Cc1c(-c2ccccc2)cccc1N1C(=O)c2ccc(OCc3ccccc3)cc2C1=O`, the IC50 in assay [1] is over 10 µM.
On the same count and under the same terms, in the case of `Cc1c(-c2ccccc2)cccc1N1C(=O)c2ccc(CN[C@@H](CO)C(=O)O)cc2C1=O` it was 0.156 µM.
For the compound `N#Cc1cccc(COc2ccc3c(c2)C(=O)N(c2cccc(-c4ccccc4)c2C#N)C3=O)c1`, the IC50 in assay [1] is 0.395 µM.
Compound `COc1cc2c(cc1CN[C@@H](C)C(=O)O)C(=O)N(c1cccc(-c3ccccc3)c1C)C2=O` showed an IC50 in assay [1] of 0.0169 µM.
Regarding `CC(=O)COc1ccc2c(c1)C(=O)N(c1cccc(-c3ccccc3)c1C)C2=O`, half-maximal inhibition in assay [1] (IC50) required 1.06 µM. This IC50 lies about 63-fold higher than the previous one.
In assay [1], `Cc1c(-c2ccccc2)cccc1N1C(=O)c2cc(Br)c(CN3CCOCC3)cc2C1=O` came in with an IC50 of over 10 µM.
As for `Cc1c(CN2C(=O)c3ccc(CN4CCCC[C@H]4C(=O)O)cc3C2=O)cccc1-c1ccccc1`, the IC50 in assay [1] is 4.63 µM.
Same read-out and setting: in the case of `Cc1c(-c2ccccc2)cccc1N1C(=O)c2ccc(CNCCN)cc2C1=O` it was 0.912 µM.
The same measure, in the same setting: with `Cc1c(-c2ccccc2)cccc1N1C(=O)c2ccc(CN3CCCC[C@H]3C(=O)O)cc2C1=O` the figure was 2.11 µM.
Still for that read-out and setting: with `Cc1c(-c2ccccc2)cccc1N1C(=O)c2ccc(OCc3cccc(C#N)c3)cc2C1=O` the figure was over 10 µM; with `N#Cc1c(-c2ccc3c(c2)OCCO3)cccc1N1C(=O)c2ccc(C(=O)NCCO)cc2C1=O`, 1.17 µM; with `CC(=O)NCCNCc1ccc2c(c1)C(=O)N(Cc1cccc(-c3ccccc3)c1C)C2=O`, 5.41 µM.
Compound `N#Cc1c(-c2ccccc2)cccc1N1C(=O)c2ccc(C(=O)NCCO)cc2C1=O` showed an IC50 in assay [1] of 3.67 µM.
Same read-out and setting: with `Cc1c(-c2ccccc2)cccc1N1C(=O)c2ccc(CN3CCC[C@H]3C(N)=O)cc2C1=O` the figure was 2.77 µM.

In general, IC50 refers to the concentration needed to halve the response being measured.

Values taken from ChEMBL document CHEMBL5316293, “Novel Small-Molecule PD-L1 Inhibitor Induces PD-L1 Internalization and Optimizes the Immune Microenvironment” (J Med Chem, 2023).
